Assay results as given in the supplement of paper PMC10307832.

Columns and labels:
Assay in all cases: relative viability (nuclei count vs DMSO), 5 days (fraction); higher = more cells survive
[1] = compound: C[C@@]1(C(=O)Nc2ccc(F)nc2)CCCN1c1nc(Nc2cc(C3CC3)n[nH]2)c2cccn2n1 + C[C@]1(O)C[C@@H](c2nc(-c3ccc4ccc(-c5ccccc5)nc4c3)c3c(N)nccn32)C1 [Linsitinib] (partner 1 µM)
Procedure, shortened: (§1)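 Each reported value is a median over duplicate plates. It expresses relative viability: treated-well nuclei count divided by vehicle-well nuclei count. Lung cancer cell lines in 1536-well plates were dosed by pin tool a day after seeding, alone with one drug or with a fixed anchor-drug dose plus five library-drug doses (not always all listed) in √10 steps, and nuclei were counted after 5 days.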

[2] = compound: C[C@@]1(C(=O)Nc2ccc(F)nc2)CCCN1c1nc(Nc2cc(C3CC3)n[nH]2)c2cccn2n1 + CC(C)C[C@H](NC(=O)[C@H](Cc1ccccc1)NC(=O)c1cnccn1)B(O)O [Bortezomib] (partner 0.002 µM)
Procedure, shortened: as §1

[3] = compound: C[C@@]1(C(=O)Nc2ccc(F)nc2)CCCN1c1nc(Nc2cc(C3CC3)n[nH]2)c2cccn2n1 + COc1cc2c(Oc3ccc(NC(=O)C4(C(=O)Nc5ccc(F)cc5)CC4)cc3F)ccnc2cc1OCCCN1CCOCC1 [Foretinib] (partner 0.25 µM)
Procedure, shortened: as §1

[4] = compound: CC1(C)CNc2cc(NC(=O)c3cccnc3NCc3ccncc3)ccc21 [Motesanib] + Cc1cc(Nc2cc(N3CCN(C)CC3)nc(Sc3ccc(NC(=O)C4CC4)cc3)n2)n[nH]1 [Tozasertib] (partner 0.1 µM)
Procedure, shortened: as §1

| Cell Line | relative viability ([1]; first compound 0.04 µM) | relative viability ([1]; first compound 0.1265 µM) | relative viability ([1]; first compound 0.4 µM) | relative viability ([1]; first compound 1.265 µM) | relative viability ([2]; first compound 0.04 µM) | relative viability ([2]; first compound 0.1265 µM) | relative viability ([2]; first compound 0.4 µM) | relative viability ([2]; first compound 1.265 µM) | relative viability ([3]; first compound 0.04 µM) | relative viability ([3]; first compound 0.1265 µM) | relative viability ([3]; first compound 0.4 µM) | relative viability ([3]; first compound 1.265 µM) | relative viability ([4]; first compound 0.01 µM) | relative viability ([4]; first compound 0.03162 µM) | relative viability ([4]; first compound 0.1 µM) | relative viability ([4]; first compound 0.3162 µM) | relative viability ([4]; first compound 1 µM) |
| --- | --- | --- | --- | --- | --- | --- | --- | --- | --- | --- | --- | --- | --- | --- | --- | --- | --- |
| 201T | 0.97 | 0.97 | 0.908 | 1.04 | 1.1 | 0.958 | 1.01 | 0.957 | 0.747 | 0.629 | 0.353 | 0.573 | 0.888 | 0.833 | 1.05 | 0.923 | 0.97 |
| A549 | 0.681 | 0.571 | 0.401 | 0.79 | – | – | – | – | 0.891 | 0.659 | 0.582 | 0.272 | – | – | – | – | – |
| A-427 | 1.11 | 1.05 | 1.08 | 1.16 | 1 | 0.995 | 0.897 | 1.01 | 1.19 | 0.988 | 0.785 | 1.15 | 0.185 | 0.191 | 0.24 | 0.236 | 0.173 |
| ABC-1 | 1.05 | 0.711 | 0.619 | 0.777 | 0.329 | 0.318 | 0.264 | 0.183 | 0.773 | 0.782 | 0.744 | 0.38 | 0.174 | 0.188 | 0.226 | 0.197 | 0.149 |
| BEN | 0.895 | 1.24 | 0.766 | 1.04 | 1.11 | 0.785 | 0.815 | 0.903 | 0.918 | 0.649 | 0.678 | 0.536 | 0.505 | 0.529 | 0.627 | 0.547 | 0.543 |
| CAL-12T | 0.827 | 0.849 | 0.78 | 0.817 | 1.12 | 0.826 | 0.957 | 0.734 | 1.15 | 1.06 | 0.897 | 0.4 | 0.348 | 0.254 | 0.351 | 0.384 | 0.371 |
| COR-L23 | 0.818 | 0.855 | 0.768 | 0.705 | 1.06 | 1.01 | 0.936 | 0.583 | 0.967 | 0.865 | 0.762 | 0.695 | 0.238 | 0.141 | 0.456 | 0.193 | 0.191 |
| COR-L 105 | 0.796 | 0.808 | 0.627 | 0.946 | 0.709 | 0.631 | 0.415 | 0.373 | 0.887 | 0.993 | 0.828 | 1.01 | 0.341 | 0.33 | 0.327 | 0.381 | 0.345 |
| Calu-6 | 0.91 | 0.895 | 0.833 | 0.859 | 1.01 | 0.957 | 0.929 | 0.359 | 0.959 | 0.871 | 0.758 | 0.414 | – | – | – | – | – |
| ChaGo-K-1 | – | – | – | – | 1.01 | 0.797 | 1.1 | 0.824 | 0.831 | 0.829 | 0.828 | 0.888 | 0.236 | 0.237 | 0.219 | 0.252 | 0.22 |
| EBC-1 | 0.953 | 0.76 | 0.706 | 0.891 | 0.527 | 0.509 | 0.52 | 0.302 | 0.114 | 0.0828 | 0.0953 | 0.11 | – | – | – | – | – |
| EKVX | 0.989 | 0.742 | 0.725 | 0.964 | 1.01 | 1.05 | 0.796 | 0.926 | 0.684 | 0.751 | 0.602 | 0.253 | 0.368 | 0.381 | 0.356 | 0.432 | 0.422 |
| EMC-BAC-2 | 0.808 | 0.897 | 0.795 | 0.884 | 0.948 | 0.871 | 0.804 | 0.78 | 0.849 | 0.721 | 0.327 | 0.574 | 0.286 | 0.238 | 0.351 | 0.309 | 0.281 |
| EPLC-272H | 1.39 | 1.07 | 1.12 | 1.58 | 0.859 | 0.78 | 0.702 | 0.878 | 0.57 | – | 0.558 | 0.796 | 0.293 | 0.234 | – | 0.253 | 0.253 |
| H3255 | 1.14 | 1.03 | 0.833 | 0.986 | 0.973 | 1.02 | 0.719 | 0.669 | 1 | 1.1 | 0.883 | 0.787 | 0.549 | 0.671 | 0.742 | 0.513 | 0.608 |
| HARA | 0.947 | 0.939 | 0.88 | 1.12 | 1.11 | 1.12 | 0.684 | 1.05 | 0.802 | 0.78 | 0.652 | 1.01 | 0.117 | 0.0896 | 0.097 | 0.133 | 0.0863 |
| HCC-15 | 0.902 | 0.885 | 0.782 | 0.981 | 0.943 | 0.742 | 0.881 | 1 | 0.906 | 0.485 | 0.614 | 0.686 | 0.454 | 0.278 | 0.372 | 0.451 | 0.392 |
| HCC-44 | 0.777 | 0.622 | 0.605 | 0.945 | 0.862 | 0.81 | 0.648 | 0.685 | – | – | – | – | 0.944 | 0.721 | 0.941 | 0.998 | 0.974 |
| HCC-78 | 0.541 | 0.332 | 0.313 | 0.259 | 0.445 | 0.855 | 0.293 | 0.317 | 0.505 | 0.323 | 0.347 | 0.421 | 0.486 | 0.373 | 0.476 | 0.355 | 0.403 |
| HCC-366 | 0.732 | 0.446 | 0.459 | 0.677 | 1.06 | 1.04 | 1 | 0.802 | 0.957 | 0.922 | 0.9 | 1.07 | 0.124 | 0.115 | 0.126 | 0.139 | 0.0819 |
